Results reported in patent publication US20260373119A1, “NOVEL COMPOUND, AND COMPOSITION FOR PREVENTING OR TREATING HER2-POSITIVE CANCER, COMPRISING SAME” (EWHA UNIVERSITY - INDUSTRY COLLABORATION FOUNDATION, priority 2022, published 2026).

Assays:
[1] = biological target: T1, ELF3-MED23 protein-protein interaction (Homo sapiens, UniProt Q9ULK4); test: SEAP reporter assay, ELF3-MED23 PPI inhibition (293T kidney cells); assay type: cell-based
T1 construct: followed by the addition of either the candidate compound or MED23 protein constructs; endogenous in cells; host or cells: 293T kidney cells (MED23 endogenous; GAL4-ELF3 transfected)
T1 sequence (Q9ULK4 1-1368): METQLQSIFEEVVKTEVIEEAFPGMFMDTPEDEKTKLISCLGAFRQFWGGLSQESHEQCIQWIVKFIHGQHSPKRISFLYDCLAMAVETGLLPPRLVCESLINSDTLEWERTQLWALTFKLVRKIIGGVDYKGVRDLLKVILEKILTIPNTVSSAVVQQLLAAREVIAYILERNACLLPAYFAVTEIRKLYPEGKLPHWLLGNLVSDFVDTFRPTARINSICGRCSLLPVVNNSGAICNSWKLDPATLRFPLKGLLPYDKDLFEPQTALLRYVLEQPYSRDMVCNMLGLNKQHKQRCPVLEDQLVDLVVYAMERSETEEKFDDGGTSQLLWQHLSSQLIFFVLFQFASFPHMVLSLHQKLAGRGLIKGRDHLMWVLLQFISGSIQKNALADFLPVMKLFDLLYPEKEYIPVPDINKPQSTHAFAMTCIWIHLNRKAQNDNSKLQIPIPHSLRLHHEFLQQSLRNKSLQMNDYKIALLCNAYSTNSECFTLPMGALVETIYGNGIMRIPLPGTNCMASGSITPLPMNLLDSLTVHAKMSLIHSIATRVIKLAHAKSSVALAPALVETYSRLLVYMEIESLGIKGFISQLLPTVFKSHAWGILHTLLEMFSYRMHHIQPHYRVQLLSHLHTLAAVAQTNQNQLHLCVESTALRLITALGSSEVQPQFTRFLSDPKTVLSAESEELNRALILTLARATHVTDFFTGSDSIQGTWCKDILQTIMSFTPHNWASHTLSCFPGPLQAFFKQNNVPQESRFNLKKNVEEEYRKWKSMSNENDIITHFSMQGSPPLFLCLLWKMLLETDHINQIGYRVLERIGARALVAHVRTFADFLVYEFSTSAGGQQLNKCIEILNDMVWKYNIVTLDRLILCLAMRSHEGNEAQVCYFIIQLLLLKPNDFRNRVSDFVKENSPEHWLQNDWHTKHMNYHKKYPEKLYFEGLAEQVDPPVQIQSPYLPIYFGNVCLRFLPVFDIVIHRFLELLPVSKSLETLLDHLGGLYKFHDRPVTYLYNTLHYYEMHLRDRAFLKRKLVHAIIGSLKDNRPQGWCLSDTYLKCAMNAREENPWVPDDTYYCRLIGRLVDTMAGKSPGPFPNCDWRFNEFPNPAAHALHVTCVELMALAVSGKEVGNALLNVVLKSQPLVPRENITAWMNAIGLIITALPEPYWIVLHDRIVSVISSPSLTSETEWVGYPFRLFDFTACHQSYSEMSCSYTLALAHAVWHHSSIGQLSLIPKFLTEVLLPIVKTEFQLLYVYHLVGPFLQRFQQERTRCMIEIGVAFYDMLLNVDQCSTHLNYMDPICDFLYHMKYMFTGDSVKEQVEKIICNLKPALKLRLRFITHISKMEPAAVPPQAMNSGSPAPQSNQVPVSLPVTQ
Procedure: To verify whether the D400 and H449 residues play a critical role in the ELF3-MED23 protein-protein interaction, a SEAP assay was performed. Specifically, 293T kidney cells were seeded at a density of 5×10^3 cells/well in a 96-well microplate (SPL, Korea) and cultured overnight. Subsequently, the cells were co-transfected with 100 ng of each plasmid using transfection-optimized medium (Welgene, Korea). The plasmids used included the SEAP reporter gene (pG5IL2SX) and GAL4-ELF3 expression vector (pBJ GAL4-ELF3). For transfection, the cells were incubated with WelFectQ (Welgene, Korea) for 3 hours, followed by the addition of either the candidate compound or MED23 protein constructs (pcDNA MED23^WT, K397A, D400A, H449G, and D400A/H449G). The treated cells were incubated for 12 hours. The candidate compound was added in an incubator at 5% CO2 and 37 °C, and the plate was incubated at 65 °C for 3 hours to inactivate all enzymes except SEAP (Secreted Alkaline Phosphatase). A mixture comprising 100 μL of substrate solution prepared with 1.19 μL of 0.1 M 4-methylumbelliferyl phosphate (Sigma, USA), 25 μL of inactivated medium, and 75 μL of double-distilled water was added, followed by the addition of 98.81 μL of 2 M diethanolamine (pH 10, Sigma, USA). The plate was incubated overnight at 37 °C. Subsequently, the fluorescence intensity was measured using a fluorometer (SPECTRAmax […], Molecular Devices, USA) at an excitation wavelength of 360 nm and an emission wavelength of 440 nm.
To further elaborate on the above findings, small molecule compounds that could affect the ELF3-MED23 PPI were designed and synthesized. Specifically, non-essential side chains were removed from gefitnib, and compounds were designed to include both hydrogen bond donors and acceptors for the D400 and H449 residues of MED23, respectively (FIG. 4A). Specifically, chalcones and pyrazolines were selected as core scaffolds, and 25 compounds (11 chalcones and 14 pyrazoline-based compounds) were prepared. The ELF3-MED23 PPI inhibitory activity of all prepared compounds was measured using a SEAP assay.

[2] = tested on: HER2 gene; test: HER2 gene (mRNA) expression; assay type: cell-based; details: dose-dependent
Procedure: To further confirm the effects of the candidate compound, […] quantitative analysis was performed. Specifically, RNA was extracted from cells using the FavorPrep Tri-RNA reagent (FAVORGEN Biotech Corp., Taiwan) and reverse-transcribed into complementary DNA (cDNA) using the PrimeScript RT Reagent Kit (Takara Bio Inc., Japan) following the manufacturer's instructions. Quantitative gene analysis was conducted using the SensiFAST SYBR No-ROX kit (Bioline, Canada). PCR was performed using the CFX96™ real-time PCR detection system (Bio-Rad, USA) under the following protocol: 95 °C for 2 minutes, and 27 cycles at 95 °C for 10 seconds, 56 °C for 10 seconds, and 72 °C for 20 seconds. The relative amount of mRNA was determined using the ΔΔCt method, and normalized against GAPDH or ACTIN. […]

[3] = biological target: HER family kinases (EGFR, ErbB2, and ErbB4) or kinases associated with the AKT/MAPK pathway (PI3 kinase and c-RAF); test: kinase profiling, summary over the panel; assay type: biochemical; details: 10 μM and 25 μM
Procedure: Kinase inhibitory activity of the candidate compound at 10 μM and 25 μM was assessed using Eurofins Kinase Profiling Services. Inhibitory effects on c-RAF, EGFR, ErbB2, ErbB4, and PI3 kinase were analyzed according to the Kinase Profiler Service Assay protocol.

[4] = tested on: TZMB-resistant cells; test: treatment of TZMB-resistant cells; assay type: cell-based; details: BT474 TR, NCI-N87 TR, JIMT-1
Procedure: The ability of the candidate compound to overcome trastuzumab resistance was evaluated.

- IC50 ([1]; ELF3-MED23 PPI): 1180 ± 340 nM
- inhibition at 10 µM ([1]; HEK-293T, 10 μM): 95%
- kinase inhibitory activity in words [3]: no significant inhibitory activity
Structure (SMILES): CC(=O)N1N=C(c2cccc(O)c2)CC1c1ccc(Cl)cc1 (centres unmarked) [Compound 15, 1-[5-(4-Chlorophenyl)-3-(3-hydroxyphenyl)-4,5-dihydropyrazol-1-yl]-ethanone]
- HER2 gene expression level [2]: significantly downregulate HER2 gene and protein expression levels in a dose-dependent manner
- anticancer effect in TZMB-resistant cells [4]: significant anticancer effects not only in TZMB-sensitive cells but also in TZMB-resistant cells
